Assay results published in patent US20120270237A9, “METHODS FOR THE IDENTIFICATION OF KINASE INTERACTING MOLECULES AND FOR THE PURIFICATION OF KINASE PROTEINS” (Cellzone AG, priority 2009, published 2012).

Tests used:
Test in all cases: Kinobeads competition binding, L-363 cell lysate
Set-up in all cases: endogenous in cells
Conditions in all cases: 10 μM free compound, L-363 lysate
GSK3A = GSK3A (Homo sapiens, UniProt P49840)
In short: (§1)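 Bead-bound proteins were quantified by tandem mass spectrometry after iTRAQ labeling. Beforehand, lysate from proteasome-inhibited L-363 cells had been incubated with the free compound at 10 μM, with a solvent-only aliquot as reference.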

MAP3K5 = molecular target: T1, MAP3K5 (Homo sapiens, UniProt Q99683)
T1 sequence (Q99683 1-1374): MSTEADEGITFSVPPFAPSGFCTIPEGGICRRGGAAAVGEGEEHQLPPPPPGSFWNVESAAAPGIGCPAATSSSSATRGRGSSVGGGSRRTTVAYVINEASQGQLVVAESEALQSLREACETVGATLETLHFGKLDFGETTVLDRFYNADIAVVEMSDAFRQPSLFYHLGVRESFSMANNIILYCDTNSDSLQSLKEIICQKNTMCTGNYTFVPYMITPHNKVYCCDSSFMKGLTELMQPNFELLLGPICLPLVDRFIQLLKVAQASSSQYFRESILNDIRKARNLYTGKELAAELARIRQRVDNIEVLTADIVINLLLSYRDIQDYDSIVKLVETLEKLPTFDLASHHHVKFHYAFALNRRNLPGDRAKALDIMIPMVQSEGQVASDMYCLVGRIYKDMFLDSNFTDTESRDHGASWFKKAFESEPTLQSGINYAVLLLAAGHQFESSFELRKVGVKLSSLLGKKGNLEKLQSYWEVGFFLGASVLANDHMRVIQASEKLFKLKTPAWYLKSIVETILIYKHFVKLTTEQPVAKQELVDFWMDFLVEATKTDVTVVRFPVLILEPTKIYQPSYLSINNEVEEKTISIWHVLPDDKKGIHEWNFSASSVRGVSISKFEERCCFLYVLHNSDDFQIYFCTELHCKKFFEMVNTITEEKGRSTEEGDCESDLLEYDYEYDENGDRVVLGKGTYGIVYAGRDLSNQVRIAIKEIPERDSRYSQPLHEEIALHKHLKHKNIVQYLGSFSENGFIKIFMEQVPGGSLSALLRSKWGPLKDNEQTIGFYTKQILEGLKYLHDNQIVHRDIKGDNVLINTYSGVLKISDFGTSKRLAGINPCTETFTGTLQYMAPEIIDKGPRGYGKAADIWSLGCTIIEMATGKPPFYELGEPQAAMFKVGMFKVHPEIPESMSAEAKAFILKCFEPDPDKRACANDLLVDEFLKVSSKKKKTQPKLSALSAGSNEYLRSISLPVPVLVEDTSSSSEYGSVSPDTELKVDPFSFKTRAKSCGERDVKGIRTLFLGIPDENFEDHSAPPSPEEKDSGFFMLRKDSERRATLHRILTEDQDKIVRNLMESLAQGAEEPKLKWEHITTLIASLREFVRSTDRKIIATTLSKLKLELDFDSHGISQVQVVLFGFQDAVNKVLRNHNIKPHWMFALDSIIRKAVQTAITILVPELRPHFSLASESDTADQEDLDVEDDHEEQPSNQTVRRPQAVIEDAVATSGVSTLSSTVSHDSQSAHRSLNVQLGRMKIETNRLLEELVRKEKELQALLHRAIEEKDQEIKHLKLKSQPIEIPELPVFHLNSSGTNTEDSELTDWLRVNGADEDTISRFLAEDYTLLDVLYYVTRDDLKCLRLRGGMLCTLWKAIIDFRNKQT
In short: as §1

MAP3K2 = molecular target: T2, MAP3K2 (Homo sapiens, UniProt Q9Y2U5)
T2 sequence (Q9Y2U5 1-619): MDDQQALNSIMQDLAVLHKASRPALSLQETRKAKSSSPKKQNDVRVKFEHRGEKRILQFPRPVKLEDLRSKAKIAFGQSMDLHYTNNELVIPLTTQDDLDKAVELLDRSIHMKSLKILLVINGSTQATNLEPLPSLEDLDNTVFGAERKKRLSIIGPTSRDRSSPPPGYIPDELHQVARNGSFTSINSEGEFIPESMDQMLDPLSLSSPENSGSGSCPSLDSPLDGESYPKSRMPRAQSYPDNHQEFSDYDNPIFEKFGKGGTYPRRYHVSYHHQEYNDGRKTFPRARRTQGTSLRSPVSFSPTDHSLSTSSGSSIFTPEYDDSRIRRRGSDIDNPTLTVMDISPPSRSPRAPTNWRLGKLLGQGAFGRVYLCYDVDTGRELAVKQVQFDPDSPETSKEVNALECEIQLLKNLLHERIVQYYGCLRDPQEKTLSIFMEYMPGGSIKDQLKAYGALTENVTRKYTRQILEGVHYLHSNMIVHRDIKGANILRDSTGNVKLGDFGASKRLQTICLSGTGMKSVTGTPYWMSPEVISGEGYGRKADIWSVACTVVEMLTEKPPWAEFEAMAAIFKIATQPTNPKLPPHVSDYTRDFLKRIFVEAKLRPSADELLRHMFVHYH
In short: as §1

PIP5K2C = molecular target: T3, PIP5K2C (Homo sapiens, UniProt Q8TBX8)
T3 sequence (Q8TBX8 1-421): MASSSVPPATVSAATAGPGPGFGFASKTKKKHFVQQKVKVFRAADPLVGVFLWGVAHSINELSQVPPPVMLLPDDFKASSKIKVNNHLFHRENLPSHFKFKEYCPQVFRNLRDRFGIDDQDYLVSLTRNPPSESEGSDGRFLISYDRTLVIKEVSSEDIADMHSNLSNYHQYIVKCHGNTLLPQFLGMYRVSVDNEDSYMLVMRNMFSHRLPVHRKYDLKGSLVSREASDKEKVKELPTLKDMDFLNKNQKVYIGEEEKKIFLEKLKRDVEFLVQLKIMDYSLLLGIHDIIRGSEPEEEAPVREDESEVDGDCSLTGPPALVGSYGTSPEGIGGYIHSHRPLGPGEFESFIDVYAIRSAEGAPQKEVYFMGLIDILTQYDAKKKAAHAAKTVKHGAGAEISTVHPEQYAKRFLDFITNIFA
In short: as §1

Chain of GSK3A (P49840 whole entry): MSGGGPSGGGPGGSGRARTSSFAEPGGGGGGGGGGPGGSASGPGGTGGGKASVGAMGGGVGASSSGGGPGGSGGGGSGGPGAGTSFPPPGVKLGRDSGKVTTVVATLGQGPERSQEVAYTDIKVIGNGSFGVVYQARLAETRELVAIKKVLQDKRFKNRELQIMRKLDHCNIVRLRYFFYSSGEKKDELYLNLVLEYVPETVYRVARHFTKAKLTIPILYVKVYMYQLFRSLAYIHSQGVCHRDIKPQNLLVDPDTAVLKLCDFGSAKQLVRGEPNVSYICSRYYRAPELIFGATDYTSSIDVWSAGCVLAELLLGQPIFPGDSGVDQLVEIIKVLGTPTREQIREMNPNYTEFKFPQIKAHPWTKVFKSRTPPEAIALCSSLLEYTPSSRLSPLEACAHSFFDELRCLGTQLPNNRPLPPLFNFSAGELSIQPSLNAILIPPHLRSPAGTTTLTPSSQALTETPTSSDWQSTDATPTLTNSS

- inhibition at 10 µM (GSK3A): 96.9%
- inhibition at 10 µM (MAP3K5): 91.3%
- inhibition at 10 µM (MAP3K2): 96%
- inhibition at 10 µM (PIP5K2C): 92%
SMILES: CS(=O)(=O)Nc1ccccc1Nc1nc(Nc2cccc(OCCN)c2)ncc1Cl [CZC31326, N-(2-(2-(3-(2-aminoethoxy)phenylamino)-5-chloropyrimidin-4-ylamino)phenyl)methanesulfonamide]
